Values belong to the compound of their own block, whether it stands above or below them.
Tests used:
d-U937 cells = assay: Accumulation of β catenin in d-U937 cells; type: cell-based, human; conditions: relative to Reference Compound at 1 μg/mL
Experimental: U937 cells, a human monocytic cell line, are differentiated into macrophage-type cells by incubation with PMA (100 ng/mL) for between 48 to 72 hr. The cells are then incubated with either final concentrations of test compound or vehicle for 18 hr. The induction of β-catenin by the test compounds is stopped by replacing the media with 4% formaldehyde solution. Endogenous peroxide activity is neutralised by incubating with quenching buffer (100 μL, 0.1% sodium azide, 1% H2O2 in PBS with 0.05% Tween-20) for 20 min. The cells are washed with washing buffer (200 pt; PBS containing 0.05% Tween-20) and incubated with blocking solution (200 pt; 5% milk in PBS) for 1 hr, re-washed with washing buffer (200 pt) and then incubated overnight with anti-β-catenin antibody solution (50 μL) in 1% BSA/PBS (BD, Oxford, UK).
After washing with washing buffer (3×200 pt; PBS containing 0.05% Tween-20), cells are incubated with a HRP-conjugated secondary antibody solution (100 μL) in 1% BSA/PBS (Dako, Cambridge, UK) and the resultant signal is determined colourimetrically (OD: 450 nm with a reference wavelength of 655 nm) using TMB substrate (50 μL; R&D Systems, Abingdon, UK). This reaction is stopped by addition of 1N H2SO4 solution (50 μL). Cells are then washed with washing buffer and 2% crystal violet solution (50 μL) is applied for 30 min. After washing with washing buffer (3×200 μL), 1% SDS (100 μL) is added to each well and the plates are shaken lightly for 1 hr prior to measuring the absorbance at 595 nm (Varioskan® Flash, Thermo-Fisher Scientific).
The measured OD450-655 readings are corrected for cell number by dividing the OD450-655 by the OD595 readings.

B-Raf = B-Raf (Homo sapiens (Human), UniProt P15056); assay: KINOMEscan binding of kinase to standard ligand
Experimental: (§1) Kinase enzyme binding activities of compounds disclosed herein may be determined using a proprietary assay which measures active site-directed competition binding to an immobilized ligand (Fabian, M. A. et al., Nature Biotechnol., 2005, 23:329-336). These assays may be conducted by DiscoverX (formerly Ambit; San Diego, Calif.). The percentage inhibition produced by incubation with a test compound may be calculated relative to the non-inhibited control.

B-Raf (V600E) = B-Raf (V600E) (Homo sapiens (Human), UniProt P15056, V600E); assay: KINOMEscan binding of kinase to standard ligand
Experimental: as §1

non-mutant kinases = assay: KinomeScan selectivity scores; type: binding; conditions: evidenced by lower selectivity scores
Experimental: These assays may be conducted by DiscoverX (formerly Ambit; San Diego, Calif.). The percentage inhibition produced by incubation with a test compound may be calculated relative to the non-inhibited control.

[1] = system: intestinal mucosa biopsies from ulcerative colitis patients; assay: Human biopsy assay (cytokine release from intestinal mucosa biopsies); type: cell-based; conditions: 1 μg/mL, 24 hours
Experimental: Intestinal mucosa biopsies are obtained from the inflamed regions of the colons of IBD patients. The biopsy material is cut into small pieces (2-3 mm) and placed on steel grids in an organ culture chamber at 37° C. in a 5% CO2/95% O2 atmosphere in serum-free media. DMSO control or test compounds at the desired concentration are added to the tissue and incubated for 24 hr in the organ culture chamber. The supernatant is harvested for determination of IL-6, IL-8, IL-1β and TNFα levels by R&D ELISA.

TNBS-induced colitis = TNBS-induced colitis in mice; type: in vivo, BDF1 mice; conditions: conducted over 2 days; oral
Experimental: Non-fasted, 10-12 week old, male BDF1 mice are dosed by oral gavage twice daily with either vehicle (5 mL/kg), reference item (Budesonide 2.5 mg/kg) or test compound (1 or 5 mg/kg) one day before (Day −1) stimulation of the inflammatory response by treatment with 2,4,6-trinitrobenzenesulphonic acid (TNBS) (15 mg/mL in 50% ethanol/50% saline). On Day 0 of the study TNBS (200 μL) is administered intra-colonically via a plastic catheter with BID dosing of the vehicle, reference or test compound continuing for 2 or 4 days. During the study, animals are weighed every day and stool observations are made and recorded as a score, based on stool consistency. At the time of sacrifice on Day 2 (or Day 4), the large intestine is removed and the length and weight recorded. Sections of the colon are taken for histopathology scoring to determine disease severity.

[2] = system: adoptive transfer colitis; assay: Adoptive transfer in mice; type: in vivo, SCID mice
Experimental: On Study day 0, female Balb/C mice are terminated and spleens obtained for CD45RB^high cell isolation (Using SCID IBD cell Separation protocol). Approximately 4×10^5 cells/mL CD45RB^high cells are then injected intraperitoneally (100 μL/mouse) into female SCID animals. On study day 14, mice are weighed and randomized into treatment groups based on body weight. On Day 14, compounds are administered BID, via oral gavage, in a peanut oil vehicle at the dose levels outlined below in Tables 6a and 6b and a dose volume of 5 mL/kg. Treatment continues until study day 42, at which point the animals are necropsied 4 hours after the morning administration. The colon length and weight are recorded and used as a secondary endpoint in the study as a measurement of colon oedema. The colon is then divided into six cross-sections, four of which are used for histopathology scoring (primary endpoint) and two are homogenised for cytokine analysis. Data shown is the % inhibition of the induction window between nave animals and vehicle animals, where higher inhibition implies closer to the non-diseased, nave, phenotype.

[3] = system: rat, Cynomolgus macaque or human hepatocytes; assay: Analysis of metabolites in hepatocytes; type: in vitro ADME; conditions: 10 μM, 0, 60 and 90 minutes
Experimental: Studies were conducted by BioFocus (Saffron Walden, UK) to determine the metabolic fate of the compound of Example 16 following incubation with rat, Cynomolgus macaque or human hepatocytes.
Separate incubations (n=3) of the compound of Example 16 (10 μM initial concentration) or DMSO control, were performed with cryopreserved hepatocytes from each species (0.5 million cell/mL) at 37° C. for 0, 60 and 90 minutes before termination of reactions and compound extraction with acetonitrile. Sample replicates were pooled prior to analysis.
Potential metabolites were identified using time-of-flight (TOF) and triple quadruple (TQ) mass spectrometers.

[4] = system: Salmonella typhimurium, strains TA98 and TA100; assay: Mutagenicity assessment (bacterial reverse mutation screen); type: cell-based; conditions: TA98 and TA100, presence or absence of S-9 mix
Experimental: Studies were conducted by Sequani (Ledbury, Herefordshire, UK) to assess compounds of the invention for their ability to induce mutations in two histidine dependent auxotrophic mutants of Salmonella typhimurium, strains TA98 and TA100 in vitro.
The mutation screen was conducted using the plate incorporation method and was performed in both the presence and absence of S-9 mix (a liver post-mitochondrial fraction derived from the livers of Aroclor 1254 treated rats). The bacteria were exposed to test compounds dissolved in dimethylsulphoxide, which solvent was also used as the negative control. The dose levels used were 0.32, 1.6, 8, 40, 200, 1000 or 5000 μg/plate.

GSK 3α = GSK 3α (Homo sapiens (Human), UniProt P49840); assay: GSK 3α enzyme inhibition (Z-LYTE FRET, Method 1 / Method 2); type: biochemical; conditions: read-out: IC50 Values for Enzyme Inhibition GSK3α
Experimental: The enzyme inhibitory activities of compounds disclosed herein are determined by FRET using synthetic peptides labelled with both donor and acceptor fluorophores (Z-LYTE, Invitrogen Ltd., Paisley, UK).
The following two assay variants can be used for determination of GSK 3α inhibition.
The inhibitory activities of compounds of the invention against the GSK 3α enzyme isoform (Invitrogen), are evaluated by determining the level of activation/phosphorylation of the target peptide. The GSK3-α protein (500 ng/mL, 2.5 μL) is mixed with the test compound (2.5 μL at either 4 μg/mL, 0.4 μg/mL, 0.04 μg/mL, or 0.004 μg/mL) for 2 hr at RT. The FRET peptide (8 μM, 2.5 μL), which is a phosphorylation target for GSK3α, and ATP (40 μM, 2.5 μL) are then added to the enzyme/compound mixture and the resulting mixture incubated for 1 hr. Development reagent (protease, 5 μL) is added for 1 hr prior to detection in a fluorescence microplate reader (Varioskan® Flash, ThermoFisher Scientific).
In all cases, the site-specific protease cleaves non-phosphorylated peptide only and eliminates the FRET signal. Phosphorylation levels of each reaction are calculated using the ratio of coumarin emission (donor) over fluorescein emission (acceptor), for which high ratios indicate high phosphorylation and low ratios indicate low phosphorylation levels. […]

CYP2C9 = CYP2C9 (Homo sapiens (Human), UniProt P11712); assay: CYP2C9 inhibition studies; type: in vitro ADME
Experimental: Assessment of certain in vitro ADME (absorption, distribution, metabolism, and excretion) parameters for certain compounds of the invention was conducted by BioFocus (Saffron Walden, UK).

[5] = Hydrolytic stability study; type: physicochemical; conditions: DMSO and water (3:1), 1 mg/mL, 60° C.
Experimental: Chemical stability of compounds of the invention was assessed in a mixture of DMSO and water (3:1) at a test compound concentration of 1 mg/mL
Sample Preparation • A 1.0 mg sample of test compound was dissolved in 750 μL of DMSO. Water (250 μL) was added slowly, ensuring no precipitation occurred.
Recording Stability • A 50 μL aliquot of the test solution was removed and analysed in duplicate by 5 μL HPLC injections. The peak area for the test compound was recorded following manual integration of the corresponding UV trace. • The test solution was heated to 60° C., with stirring, and 50 μL aliquots removed for HPLC analysis at 5 and 24 h timepoints.

Chain of CYP2C9 (P11712 whole entry): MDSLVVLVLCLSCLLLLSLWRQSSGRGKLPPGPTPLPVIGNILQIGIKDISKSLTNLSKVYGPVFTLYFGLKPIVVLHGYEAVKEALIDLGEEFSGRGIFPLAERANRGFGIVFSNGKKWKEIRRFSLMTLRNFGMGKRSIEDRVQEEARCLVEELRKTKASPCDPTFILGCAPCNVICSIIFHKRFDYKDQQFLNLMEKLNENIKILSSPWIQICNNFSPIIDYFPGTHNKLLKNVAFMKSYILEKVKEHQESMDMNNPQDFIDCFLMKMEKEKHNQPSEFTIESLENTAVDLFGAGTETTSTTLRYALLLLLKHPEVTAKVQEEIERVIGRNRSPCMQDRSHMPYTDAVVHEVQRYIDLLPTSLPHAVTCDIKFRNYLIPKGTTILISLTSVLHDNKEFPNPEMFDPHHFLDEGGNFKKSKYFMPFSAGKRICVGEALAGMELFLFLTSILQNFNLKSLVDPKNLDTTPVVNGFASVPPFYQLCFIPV
Chain of B-Raf (P15056 whole entry): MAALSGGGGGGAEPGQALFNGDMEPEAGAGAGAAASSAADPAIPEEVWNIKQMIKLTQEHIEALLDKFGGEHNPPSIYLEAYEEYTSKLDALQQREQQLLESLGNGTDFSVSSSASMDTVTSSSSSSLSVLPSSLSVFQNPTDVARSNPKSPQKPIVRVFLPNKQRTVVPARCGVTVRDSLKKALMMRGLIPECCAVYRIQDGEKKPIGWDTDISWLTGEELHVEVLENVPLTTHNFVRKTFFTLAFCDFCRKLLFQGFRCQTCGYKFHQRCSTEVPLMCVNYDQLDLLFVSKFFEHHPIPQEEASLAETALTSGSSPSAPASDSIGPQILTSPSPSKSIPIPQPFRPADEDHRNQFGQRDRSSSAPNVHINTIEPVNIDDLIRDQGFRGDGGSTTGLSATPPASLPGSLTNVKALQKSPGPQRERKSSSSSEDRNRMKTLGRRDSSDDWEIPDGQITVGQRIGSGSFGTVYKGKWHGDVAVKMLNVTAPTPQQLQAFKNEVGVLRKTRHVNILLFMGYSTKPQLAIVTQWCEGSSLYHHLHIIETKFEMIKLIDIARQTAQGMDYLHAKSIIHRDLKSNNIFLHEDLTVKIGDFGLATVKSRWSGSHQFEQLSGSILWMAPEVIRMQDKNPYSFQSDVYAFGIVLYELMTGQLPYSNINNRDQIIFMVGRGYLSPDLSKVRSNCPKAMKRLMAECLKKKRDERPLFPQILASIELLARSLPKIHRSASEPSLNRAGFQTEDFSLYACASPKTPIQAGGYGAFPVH
Chain of GSK 3α (P49840 whole entry): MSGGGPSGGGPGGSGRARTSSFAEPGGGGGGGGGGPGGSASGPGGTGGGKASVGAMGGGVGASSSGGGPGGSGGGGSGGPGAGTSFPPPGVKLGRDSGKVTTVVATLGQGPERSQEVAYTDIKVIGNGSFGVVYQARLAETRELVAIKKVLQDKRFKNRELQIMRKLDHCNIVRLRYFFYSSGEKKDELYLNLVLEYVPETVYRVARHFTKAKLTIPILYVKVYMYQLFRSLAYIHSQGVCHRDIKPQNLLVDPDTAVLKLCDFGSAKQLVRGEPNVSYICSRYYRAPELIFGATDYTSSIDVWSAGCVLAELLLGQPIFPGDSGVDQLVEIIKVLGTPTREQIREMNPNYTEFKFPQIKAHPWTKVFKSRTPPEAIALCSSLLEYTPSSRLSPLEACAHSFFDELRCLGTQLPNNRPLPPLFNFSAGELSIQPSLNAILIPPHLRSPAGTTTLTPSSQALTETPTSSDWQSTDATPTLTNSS
Chain of B-Raf (V600E) (P15056 whole entry V600E): as the sequence (P15056 whole entry) above, with V600E counted along it

SMILES: COCCOCCOCCOc1cc(Nc2nccc(Oc3ccc(NC(=O)Nc4cc(C(C)(C)C)cc(NS(=O)(=O)N5CCOCC5)c4OC)c4ccccc34)n2)cc(OC)c1 [83(b), N-(5-(tert-butyl)-2-methoxy-3-(3-(4-((2-((3-methoxy-5-(2-(2-(2-methoxyethoxy)ethoxy)-ethoxy)phenyl)amino)pyrimidin-4-yl)oxy)naphthalen-1-yl)ureido)phenyl)morpholine-4-sulfonamide]
- % β-catenin induction (d-U937 cells; test compound 10 μg/mL): −6%

SMILES: C#Cc1cc(Nc2nccc(Oc3ccc(NC(=O)Nc4cc(C(C)(C)C)cc(NS(C)(=O)=O)c4OC)c4ccccc34)n2)cc(C(=O)NCCOCCOCCOC)c1 [Example 16, 3-((4-((4-(3-(5-(tert-Butyl)-2-methoxy-3-(methylsulfonamido)phenyl)ureido)naphthalen-1-yl)oxy)pyrimidin-2-yl)amino)-5-ethynyl-N-(2-(2-(2-methoxyethoxy)ethoxy)ethyl)benzamide]
- effect on the binding of B-Raf to its standard ligand (B-Raf): did not have any significant effect
- effect on the binding of B-Raf (V600E) to its standard ligand (B-Raf (V600E)): did not have any significant effect
- selectivity compared to the Reference Compound (non-mutant kinases): substantially improved selectivities
- cytokine (IL-1β, IL-6 and IL-8) release compared to the DMSO control [1]: significantly inhibited
- activity in TNBS model of colonic inflammation (histopathology analysis) (TNBS-induced colitis): displayed substantial activity
- activity in T cell driven model of colonic inflammation (ratios of colon weight to length) ([2]; adoptive transfer): displayed significant activity
- levels of pro-inflammatory cytokines in samples of colon tissue ([2]; adoptive transfer model): significantly reduced levels of pro-inflammatory cytokines
- metabolism at the naphthalene moiety [3]: no products were noted that could be connected to metabolism at the naphthalene moiety
- number of metabolites resulting from oxidation on the polyethylene glycol chain of the amide moiety [3]: 8
- increases in revertant colonies [4]: no dose-related or statistically significant increases in revertant colonies

SMILES: C#Cc1cc(Nc2cc(Oc3ccc(NC(=O)Nc4cc(C(C)(C)C)cc(NS(C)(=O)=O)c4OC)c4ccccc34)ccn2)cc(C(=O)NCCOCCOCCOC)c1 [Example 54, 3-((4-((4-(3-(5-(tert-Butyl)-2-methoxy-3-(methylsulfonamido)phenyl)ureido)naphthalen-1-yl)oxy)pyridin-2-yl)amino)-5-ethynyl-N-(2-(2-(2-methoxyethoxy)ethoxy)ethyl)benzamide]
- % β-catenin induction (d-U937 cells; test compound 5 μg/mL): 5%

SMILES: C#Cc1cc(Nc2cc(Oc3ccc(NC(=O)Nc4cc(C(C)(C)C)cc(NS(C)(=O)=O)c4OC)c4ccccc34)ccn2)cc(C(=O)N[C@H](C)COCCOCCOC)c1 [Example 68, (R)-3-((4-((4-(3-(5-(tert-Butyl)-2-methoxy-3-(methylsulfonamido)phenyl)ureido)-naphthalen-1-yl)oxy)pyridin-2-yl)amino)-5-ethynyl-N-(1-(2-(2-methoxyethoxy)ethoxy)-propan-2-yl)benzamide]
- % β-catenin induction (d-U937 cells; test compound 5 μg/mL): 2%

- IC50 (GSK 3α): 249 nM
SMILES: COc1cc(Nc2cc(Oc3ccc(NC(=O)Nc4cc(C(C)(C)C)cc(NS(C)(=O)=O)c4OC)c4ccccc34)ccn2)cc(C(=O)NCCN2CCNCC2)c1 [Example 85(q)]

- % Inh (inhibition at 5 μM reported instead) (CYP2C9; CYP2C9, 0 min preincubation): 31^[†] %
- % Inh (inhibition at 5 μM reported instead) (CYP2C9; CYP2C9, 30 min preincubation): 66^[†] %
SMILES: C#CC(C)(C)c1cc(NC(=O)Nc2ccc(Oc3ccnc(Nc4cc(C)c5[nH]ncc5c4)n3)c3ccccc23)n(-c2ccc(C)cc2)n1 [Ref Cpd A]

- decomposition [5]: underwent substantial decomposition
SMILES: C#Cc1cc(Nc2nccc(Oc3ccc(NC(=O)Nc4cc(C(C)C)nn4-c4ccc(C)cc4)c4ccccc34)n2)cc(C(=O)NCCN2CCOCC2)c1 [Reference Compound B, 3-ethynyl-5-((4-((4-(3-(3-isopropyl-1-(p-tolyl)-1H-pyrazol-5-yl)ureido)naphthalen-1-yl)oxy)pyrimidin-2-yl)amino)-N-(2-morpholinoethyl)benzamide]

From US9790174B2, “Kinase inhibitors” (Respivert Limited, priority 2013, dated 2017)
